Among the test systems are U-251; SK-MEL-2; MDA-MB-435; LOX IMVI; SNB-19; MOLT-4; SK-MEL-28; OVCAR-5; NCI-H23; Malme-3M; M14; RPMI-8226; ACHN; A549; IGROV-1; OVCAR-3; A498; T47D; SF-295; EKVX.
Holding throughout (experiment): NCI anticancer screen, dose series, 48 h

Structures are written as SMILES.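 Test compounds were applied to cells in 96-well plates for 48 hours at 5 doses. Here, GI50 denotes the concentration required for 50% inhibition of growth.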 Active and inactive are the calls of the source. No stated cut-off is given here; in the data, active = GI50 up to about 1.1 µM and inactive = higher.

In the case of `CCOC(=O)C(Cc1ccc2c(c1)CCC2)(Cc1ccc2c(c1)CCC2)C(=O)OCC`, the GI50 in the assay on U-251 is > 100 µM (inactive); in the assay with SK-MEL-2, 35.6 µM (inactive); in the assay on MDA-MB-435 it was 44.6 µM (inactive); in the assay on LOX IMVI, 71.1 µM (inactive); in the assay on SNB-19, > 100 µM (inactive); with MOLT-4 it was 23.6 µM (inactive). The GI50 in the assay with SK-MEL-28 was 51.5 µM (inactive); with OVCAR-5, > 100 µM (inactive); in the assay on NCI-H23 it was 98.4 µM (inactive); with Malme-3M, 21.1 µM (inactive); with M14, 96.2 µM (inactive); in the assay with RPMI-8226, 55.7 µM (inactive). Also, the GI50 in the assay with ACHN was > 100 µM (inactive); with A549 it was 47.5 µM (inactive); with IGROV-1 it was > 100 µM (inactive); with OVCAR-3 it was 26.1 µM (inactive); with A498, > 100 µM (inactive); in the assay on T47D, 34.2 µM (inactive). Besides, the GI50 in the assay with SF-295 was 80.7 µM (inactive); with EKVX it was 17.4 µM (inactive).
Turning to `COc1cccc(/C=N/n2c(Cc3ccc(Cl)cc3)n[nH]c2=O)c1`, the GI50 in the assay with U-251 is 22.8 µM (inactive); in the assay with SK-MEL-2 it was 32.7 µM (inactive); in the assay on MDA-MB-435, > 100 µM (inactive); in the assay with LOX IMVI, 25.6 µM (inactive); with SNB-19, 27.3 µM (inactive); in the assay with MOLT-4 it was > 100 µM (inactive). Moreover, the GI50 in the assay on SK-MEL-28 is > 100 µM (inactive); in the assay with OVCAR-5, > 78.7 µM (inactive); with NCI-H23, 27.9 µM (inactive); in the assay on Malme-3M, 44.6 µM (inactive); in the assay on M14, > 100 µM (inactive); in the assay with RPMI-8226, > 77.6 µM (inactive). Besides, the GI50 in the assay with ACHN was 36.6 µM (inactive); in the assay on A549, 58.6 µM (inactive); in the assay on IGROV-1 it was 33.5 µM (inactive); in the assay with OVCAR-3 it was > 100 µM (inactive); in the assay with A498, 59 µM (inactive); in the assay with T47D, 16.1 µM (inactive). Also, the GI50 with SF-295 was 17.1 µM (inactive); with EKVX, 29.6 µM (inactive).
As for `C=C(CCC/C(C)=C/C=C/[C@H](C)CCCc1ccoc1)C[C@@H]1OC(=O)[C@H](C)[C@@H]1O`, the GI50 was 11.8 µM (inactive) in the assay on U-251; 9.14 µM (inactive) in the assay with SK-MEL-2; 9.06 µM (inactive) in the assay with MDA-MB-435; 13.6 µM (inactive) in the assay with LOX IMVI; 8.81 µM (inactive) in the assay on SNB-19; 15.3 µM (inactive) in the assay on MOLT-4. The GI50 in the assay on SK-MEL-28 is 7.41 µM (inactive); in the assay on OVCAR-5, 11 µM (inactive); in the assay on NCI-H23, 8.69 µM (inactive); in the assay with Malme-3M it was 9.4 µM (inactive); in the assay with M14 it was 8.81 µM (inactive); in the assay with RPMI-8226 it was 10.8 µM (inactive). Further, the GI50 in the assay with ACHN was 9.18 µM (inactive); with A549 it was 5.7 µM (inactive); in the assay with IGROV-1 it was 11.2 µM (inactive); in the assay on OVCAR-3, 7.64 µM (inactive); in the assay on A498, 8.53 µM (inactive); with T47D, 6.97 µM (inactive). The GI50 with SF-295 was 8.83 µM (inactive); in the assay on EKVX, 9.84 µM (inactive).
For the compound `O=C1N2CCc3c([nH]c4ccccc34)C23CC2CCCC12S3` (stereo not given), the GI50 is > 50 µM (inactive) in the assay on U-251; > 50 µM (inactive) in the assay on SK-MEL-2; 33.7 µM (inactive) in the assay on MDA-MB-435; 34.2 µM (inactive) in the assay with LOX IMVI; > 50 µM (inactive) with SNB-19; 25.8 µM (inactive) with MOLT-4. In addition, the GI50 with SK-MEL-28 was 45.3 µM (inactive); with OVCAR-5, > 50 µM (inactive); with NCI-H23 it was 20.1 µM (inactive); with Malme-3M, 27.6 µM (inactive); in the assay with M14, > 50 µM (inactive); in the assay with RPMI-8226 it was 27.4 µM (inactive). The GI50 in the assay with ACHN is 37.3 µM (inactive); in the assay with A549, 17.7 µM (inactive); in the assay on IGROV-1 it was 24.8 µM (inactive); in the assay with OVCAR-3, 39.4 µM (inactive); in the assay with A498, 33 µM (inactive); in the assay on T47D, 20.5 µM (inactive). The GI50 with SF-295 is 20.3 µM (inactive); with EKVX, 47.2 µM (inactive).
As to `CCOC(=O)C(=CNC(=S)c1ccncc1)C(=O)OCC`, the GI50 in the assay on U-251, with SK-MEL-2, in the assay on MDA-MB-435, in the assay with LOX IMVI, with SNB-19 and in the assay on MOLT-4 was > 100 µM (inactive) each time. The GI50 in the assay on SK-MEL-28, in the assay on OVCAR-5, in the assay with NCI-H23, in the assay on Malme-3M, with M14 and in the assay with RPMI-8226 was > 100 µM (inactive) each time. For the same compound, the GI50 was > 100 µM (inactive) with ACHN; > 100 µM (inactive) in the assay with A549; > 100 µM (inactive) with IGROV-1; 76.2 µM (inactive) with OVCAR-3; > 100 µM (inactive) with A498; > 100 µM (inactive) in the assay with T47D. Also, the GI50 in the assay with SF-295 and in the assay on EKVX was > 100 µM (inactive) throughout.
Consider `COc1ccc(NC(=S)NN=C(C)c2cccc(C(C)=NNC(=S)Nc3ccc(OC)cc3)n2)cc1`, for which the GI50 was 24.5 µM (inactive) with U-251; > 100 µM (inactive) in the assay on SK-MEL-2; 85.5 µM (inactive) in the assay with MDA-MB-435; 13.6 µM (inactive) in the assay with LOX IMVI; > 100 µM (inactive) in the assay on SNB-19; 8.55 µM (inactive) in the assay on MOLT-4. Besides, the GI50 with SK-MEL-28 is > 100 µM (inactive); with OVCAR-5, > 100 µM (inactive); with NCI-H23, 64 µM (inactive); with Malme-3M, 13.4 µM (inactive); with M14, 11.2 µM (inactive); with RPMI-8226 it was > 100 µM (inactive). Also, the GI50 in the assay on ACHN is 4.74 µM (inactive); with A549 it was 23.7 µM (inactive); with IGROV-1, 0.857 µM (active); in the assay with OVCAR-3, 13.9 µM (inactive); in the assay on A498 it was > 100 µM (inactive); in the assay on T47D, > 100 µM (inactive). For the same compound, the GI50 in the assay on SF-295 is 11.2 µM (inactive); in the assay on EKVX, > 100 µM (inactive).
For the compound `COc1ccc2c(c1)/C(=C\c1c(-c3ccccc3)nc3n1CCS3)C(=O)N2`, the GI50 in the assay with U-251 is 7.28 µM (inactive); in the assay with SK-MEL-2 it was 5.25 µM (inactive); in the assay with MDA-MB-435 it was 1.53 µM (inactive); in the assay with LOX IMVI it was 7.64 µM (inactive); with SNB-19, 49.7 µM (inactive); in the assay on MOLT-4 it was 2.78 µM (inactive). For the same compound, the GI50 with SK-MEL-28 was 11.1 µM (inactive); in the assay with OVCAR-5 it was 14.8 µM (inactive); in the assay with NCI-H23, 11.5 µM (inactive); in the assay with Malme-3M it was 12.2 µM (inactive); with M14, 6.9 µM (inactive); in the assay on RPMI-8226, 5.26 µM (inactive). Also, the GI50 is 11.5 µM (inactive) with ACHN; 5.57 µM (inactive) with A549; 4.92 µM (inactive) with IGROV-1; 3.82 µM (inactive) with OVCAR-3; 5.05 µM (inactive) with A498; 7.5 µM (inactive) in the assay with T47D. Further, the figures for the GI50 in the assay on SF-295 and with EKVX were 3.79 µM (inactive) and 12.8 µM (inactive), respectively.
Consider `CC(C)(C)c1cc(C(C)(C)C)c2sc(=S)oc2c1O`, for which the GI50 in the assay on U-251 was 6.3 µM (inactive); with SK-MEL-2, 8.79 µM (inactive); in the assay with MDA-MB-435, 8.17 µM (inactive); with LOX IMVI, 5.05 µM (inactive); in the assay with SNB-19, 12.7 µM (inactive); with MOLT-4, 5.2 µM (inactive). In addition, the GI50 in the assay with SK-MEL-28 was 8.09 µM (inactive); in the assay with OVCAR-5, 7.46 µM (inactive); in the assay on NCI-H23, 5.37 µM (inactive); with Malme-3M, 15.8 µM (inactive); in the assay with M14 it was 10.4 µM (inactive); with RPMI-8226 it was 7.33 µM (inactive). Moreover, the GI50 in the assay with ACHN was 8.53 µM (inactive); in the assay with A549, 6.55 µM (inactive); in the assay on IGROV-1 it was 9.98 µM (inactive); with OVCAR-3, 5.14 µM (inactive); in the assay with A498 it was 12.9 µM (inactive); in the assay on T47D, 5.19 µM (inactive). In addition, the GI50 is 10.5 µM (inactive) in the assay on SF-295 and 3.85 µM (inactive) with EKVX.
As to `CCCCCC(O)(CCCCC)CCCCCCCCC1=C(O)C(=O)c2ccccc2C1=O`, the GI50 was 7.73 µM (inactive) in the assay with U-251; 12.1 µM (inactive) in the assay on SK-MEL-2; 8.53 µM (inactive) in the assay on MDA-MB-435; 4.97 µM (inactive) in the assay on LOX IMVI; 5.75 µM (inactive) in the assay on SNB-19; 3.33 µM (inactive) with MOLT-4. Further, the GI50 in the assay with SK-MEL-28 is 11.7 µM (inactive); in the assay with OVCAR-5, 20.5 µM (inactive); in the assay on NCI-H23 it was 8.15 µM (inactive); with Malme-3M, 11.5 µM (inactive); with M14 it was 10.8 µM (inactive); with RPMI-8226, 3.38 µM (inactive). Besides, the GI50 in the assay with ACHN is 8.85 µM (inactive); in the assay on A549, 9.64 µM (inactive); with IGROV-1, 6.08 µM (inactive); in the assay on OVCAR-3, 14.3 µM (inactive); in the assay on A498 it was 13.3 µM (inactive); in the assay with T47D, 26.4 µM (inactive). Moreover, the figures for the GI50 with SF-295 and with EKVX were 7.91 µM (inactive) and 10.7 µM (inactive), respectively.
Take `C/C(=N\Nc1nc2ccccc2o1)c1ncccn1`: the GI50 with U-251 was 0.0213 µM (active); in the assay on SK-MEL-2, 0.175 µM (active); in the assay with MDA-MB-435, 0.0573 µM (active); with LOX IMVI it was 0.0115 µM (active); in the assay on SNB-19 it was 0.163 µM (active); with MOLT-4, < 0.01 µM (active). Also, the GI50 with SK-MEL-28 is 0.0405 µM (active); with OVCAR-5, < 0.0267 µM (active); with NCI-H23, 0.123 µM (active); in the assay on Malme-3M it was < 0.01 µM (active); in the assay on M14, < 0.0192 µM (active); with RPMI-8226 it was 0.0137 µM (active). Besides, the GI50 in the assay on ACHN was < 0.0165 µM (active); in the assay with A549 it was 0.0908 µM (active); in the assay on IGROV-1 it was 0.0184 µM (active); in the assay with OVCAR-3 it was 0.0136 µM (active); in the assay with A498, 0.332 µM (active); in the assay with T47D it was < 0.01 µM (active). Besides, the GI50 in the assay with SF-295 is 0.0824 µM (active); with EKVX, < 0.0172 µM (active).
